This is an account of results in PubChem BioAssay (NCI).

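Compound exposure: 48 hours, 5 concentrations, 96-well plates. GI50 marks 50% less growth. Definition used: TGI = concentration required for complete inhibition of growth.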

Assay in all cases: NCI tumour cell line growth inhibition, 48 h
In assay [1] the test system is RXF 393 renal.
The test system of assay [2] is SF-268 CNS.
In assay [3] the test system is UACC-257 melanoma.
For assay [4], the system named is HCC-2998 colon.
Assay [5] has as its system MALME-3M melanoma.
For assay [6], the system named is ACHN renal.
The test system of assay [7] is SK-OV-3 ovarian.
The subject of assay [8] is SR leukemia.
Assay [9] concerns UACC-62 melanoma.
Assay [10] relates to BT-549 breast.

In the case of `Oc1ccc(Cl)cc1C(c1cc(Cl)ccc1O)C(Cl)(Cl)Cl`, the GI50 in assay [1] is 1950 nM; in assay [2], 1.77 µM; in assay [3], 2.68 µM; in [4], 1690 nM; in assay [5], 1500 nM; in [6] it was 1760 nM. For the same compound, the GI50 in [7] was 2.94 µM; in assay [8], 1500 nM; in [9], 1590 nM; in assay [10], 1.82 µM. Moreover, the TGI in [1] stood at 4.16 µM; in [2], 3.41 µM; in assay [3], 10.3 µM; in [4], 3.28 µM; in [5] it was 3.91 µM; in assay [6], 4.11 µM. For the same compound, the TGI in assay [7] is 9.76 µM; in assay [8] it was 5.34 µM; in assay [9] it was 3.82 µM; in assay [10], 4.71 µM.
On to `CN=C(N)c1ccc(N=C(N)c2ccc(-c3ccc(C(N)=Nc4ccc(C(N)=NC)cc4)cc3)cc2)cc1`, for which the GI50 is 39400 nM in assay [1]; > 100 µM in [2]; > 100 µM in assay [3]; > 100000 nM in assay [4]; 25500 nM in [5]; > 100000 nM in [6]. The GI50 is > 100 µM in [7], > 100000 nM in assay [8], 30500 nM in [9] and > 100 µM in [10]. Besides, the TGI in assay [1] was > 100 µM; in [2], > 100 µM; in [3], > 100 µM; in [4] it was > 100 µM; in [5], 78.7 µM; in [6], > 100 µM. The TGI in [7], in assay [8], in [9] and in assay [10] was > 100 µM each time.
As for `COc1cc(/C=C/C(=O)c2cccc(-n3cc(-c4cc(OC)c(OC)c(OC)c4)[nH]c3=O)c2)cc(OC)c1OC`, the GI50 in [1] is 1620 nM; in assay [2], 2.2 µM; in assay [3] it was 2.22 µM; in assay [4], 1920 nM; in assay [5], 1800 nM; in [6] it was 1740 nM. Further, the GI50 is 5.12 µM in assay [7], 386 nM in assay [8], 1870 nM in [9] and 1.52 µM in assay [10]. Moreover, the TGI is 3.41 µM in assay [1]; 7.47 µM in [2]; 5.45 µM in assay [3]; 3.43 µM in assay [4]; 3.7 µM in [5]; 3.3 µM in [6]. In addition, the TGI in assay [7] was > 100 µM; in assay [8] it was > 100 µM; in assay [9], 4.01 µM; in assay [10], 3.43 µM.
For `O=C1CC(c2c[nH]c3ccc(F)cc23)C(=O)N1` (stereo not drawn), the GI50 in [1] was > 100000 nM; in assay [2] it was > 100 µM; in assay [3], > 100 µM; in assay [4], > 100000 nM; in [5] it was > 100000 nM; in assay [6], > 100000 nM. The GI50 in assay [7] was > 100 µM; in assay [8], > 100000 nM; in [9], > 100000 nM; in assay [10] it was > 100 µM. The TGI in assay [1], in [2], in assay [3], in [4], in assay [5] and in assay [6] was > 100 µM each time. Also, the TGI in assay [7], in assay [8], in [9] and in assay [10] was > 100 µM in each case.
As to `O=C1/C(=C/c2ccc(Cl)c(Cl)c2)CN(C(=O)C(Cl)Cl)C/C1=C\c1ccc(Cl)c(Cl)c1`, the GI50 was 164 nM in [1]; 0.243 µM in assay [2]; 0.666 µM in assay [3]; 181 nM in assay [4]; 237 nM in [5]; 179 nM in assay [6]. The GI50 was 0.558 µM in assay [7], 26.7 nM in assay [8], 197 nM in assay [9] and 0.228 µM in assay [10]. Also, the TGI is 0.337 µM in assay [1]; 1.14 µM in [2]; 2.24 µM in assay [3]; 0.355 µM in assay [4]; 0.669 µM in assay [5]; 0.474 µM in assay [6]. Moreover, the TGI in assay [7] was 1.82 µM; in assay [8] it was > 100 µM; in assay [9], 0.459 µM; in [10], 0.701 µM.
For `O=C1Nc2ccc(Br)cc2C12CC(c1ccccc1)=NN2` (stereo not drawn), the GI50 was 2140 nM in [1]; 9.25 µM in assay [2]; 5.98 µM in assay [3]; 15900 nM in assay [4]; 2040 nM in assay [5]; 7960 nM in [6]. Besides, the GI50 in assay [7] is 4.44 µM; in assay [8], 2880 nM; in assay [9], 5380 nM; in [10], 13 µM. Also, the TGI was 6.05 µM in assay [1]; > 100 µM in assay [2]; > 100 µM in assay [3]; 65.1 µM in assay [4]; 6.93 µM in [5]; > 100 µM in [6]. Moreover, the TGI in assay [7] stood at 87.3 µM; in [8], 19.5 µM; in assay [9] it was 27.1 µM; in [10], 74.3 µM.
With `COc1cc(/C=C2\C(=O)N(Cc3ccc(Cl)cc3)c3ccccc32)cc(OC)c1OC`, the GI50 in [1] was 2350 nM; in assay [2], 2.76 µM; in assay [3], 6.04 µM; in assay [4], 1950 nM; in assay [5], 3730 nM; in [6], 2900 nM. Moreover, the GI50 was 6.82 µM in [7], 1510 nM in [8], 2210 nM in assay [9] and 2.51 µM in [10]. The TGI in assay [1] was 4.95 µM; in [2], 13.7 µM; in assay [3], 26.6 µM; in [4], 4.28 µM; in [5], 16.3 µM; in assay [6] it was 8.37 µM. In addition, the TGI in assay [7] is > 89.4 µM; in assay [8], 4.19 µM; in assay [9], 10 µM; in assay [10], 11.6 µM.
As for `CN(C)c1ccc(/C=C\c2ccnc3ccccc23)cc1`, the GI50 in assay [1] was 3200 nM; in assay [2], 21.8 µM; in assay [3], 8.39 µM; in assay [4], 6040 nM; in [5], 17700 nM; in assay [6] it was 20700 nM. In addition, the GI50 in assay [7] was 5.25 µM; in [9], 6180 nM; in assay [10] it was 5.09 µM. Also, the TGI was > 79.6 µM in assay [1]; > 100 µM in assay [2]; 79.4 µM in [3]; > 100 µM in assay [4]; > 89.2 µM in assay [5]; > 100 µM in assay [6]. The TGI in [7] is > 100 µM; in [8], > 100 µM; in [9] it was > 100 µM; in [10], 49.9 µM.
In the case of `c1ccc(-c2oc(-c3ccccc3)c(CN3CCCCC3)c2CN2CCCCC2)cc1`, the GI50 in [1] was 1850 nM; in [2], 6.04 µM; in assay [3] it was 3 µM; in assay [4], 2020 nM; in assay [5] it was 1750 nM; in assay [6], 2540 nM. Further, the GI50 in assay [7] was 3.97 µM; in assay [8], 2520 nM; in [9], 1790 nM; in assay [10], 3.35 µM. Further, the TGI in [1] is 5.74 µM; in [2] it was 20.6 µM; in [3] it was 8.08 µM; in assay [4] it was 4.23 µM; in assay [5], 3.65 µM; in assay [6] it was 10.2 µM. Further, the TGI in [7] came to 17 µM; in [8], 6.06 µM; in [9], 4.35 µM; in assay [10], 13.3 µM.
In the case of `CC1CC2C3CCC4=CC(=O)C=CC4(C)C3(F)C(O)CC2(C)C1(O)C(=O)COP(=O)(O)O` (stereo not drawn), the GI50 is > 500000 nM in [1]; > 500 µM in assay [2]; > 500 µM in assay [3]; > 500000 nM in assay [4]; > 500000 nM in assay [5]; > 500000 nM in [6]. The results for the GI50 in assay [7], in assay [9] and in assay [10] were > 500 µM, > 500000 nM and 160 µM, respectively. Moreover, the TGI in assay [1], in assay [2], in assay [3], in [4], in assay [5] and in assay [6] was > 500 µM throughout. The TGI in assay [7] is > 500 µM; in assay [8], > 100 µM; in [9], > 500 µM; in assay [10], > 500 µM.
Turning to `COc1ccc(C(O)c2cc3c(N)c(C(=O)Nc4ccc(Cl)cc4)sc3nc2C)cc1` (stereo not drawn), the GI50 is 2250 nM in assay [1]; 3.96 µM in assay [2]; 4.99 µM in assay [3]; 3040 nM in assay [4]; 2040 nM in assay [5]; 3530 nM in assay [6]. For the same compound, the GI50 in assay [7] is 3.21 µM; in assay [8], 440 nM; in assay [9], 1860 nM; in assay [10], 3.42 µM. The TGI is 11.6 µM in assay [1]; 19.6 µM in assay [2]; 57.5 µM in [3]; 20.8 µM in assay [4]; 18.9 µM in assay [5]; 15.7 µM in assay [6]. Moreover, the TGI in assay [7] was 15.5 µM; in [8], > 100 µM; in assay [9], 32.8 µM; in assay [10], 21.6 µM.
As for `O=C1NC(=NCCc2ccc(F)cc2)S/C1=C\c1ccc2ncccc2c1`, the GI50 in assay [1] is > 25000 nM; in assay [2], > 25 µM; in assay [3], > 25 µM; in assay [4] it was > 25000 nM; in assay [5], > 25000 nM; in [6], > 25000 nM. For the same compound, the GI50 in [7] was > 25 µM; in [8], 7090 nM; in assay [9], > 25000 nM; in assay [10], > 25 µM. For the same compound, the TGI in [1], in assay [2], in [3], in assay [4], in assay [5] and in assay [6] was > 25 µM in each case. Further, the TGI in assay [7], in [8], in assay [9] and in [10] was > 25 µM each time.
As for `CC(C)=CCc1cc2c(cc1O)C1=C(C(=O)C3=C(C1=O)S(=O)(=O)CCN3)C(C=C(C)C)O2` (stereo not drawn), the GI50 was 596 nM in assay [1]; 0.917 µM in [2]; 0.482 µM in assay [3]; 1480 nM in assay [4]; 122 nM in assay [5]; 2270 nM in [6]. Further, the GI50 in assay [7] is 2.98 µM; in assay [8] it was 870 nM; in [9], 419 nM; in assay [10], 2.31 µM. Also, the TGI in assay [1] came out at 2.26 µM; in assay [2], 4.74 µM; in assay [3], 1.5 µM; in assay [4], 3.84 µM; in assay [5], 0.397 µM; in assay [6], 5.65 µM. In addition, the TGI in assay [7] worked out at 5.54 µM; in [8] it was 10.9 µM; in assay [9] it was 1.21 µM; in assay [10], 4.78 µM.
Regarding `O=C(O)C1=C/C(=C(/c2ccccc2)c2cc(C(=O)O)c(O)c3ccccc23)c2ccccc2C1=O`, the TGI in assay [1], in [2], in assay [3], in [4], in assay [5] and in assay [6] was > 100 µM each time. Besides, the TGI in [7], in assay [8], in [9] and in [10] was > 100 µM in each case.
Consider `COc1ccc2c(c1)OC(N)=C(C#N)C2c1cc(OC)c(OC)c(OC)c1` (stereo not drawn), for which the GI50 in [1] was 34.4 nM; in assay [2] it was 0.0642 µM; in assay [3] it was 0.0457 µM; in assay [4], 39.8 nM; in [5], 80500 nM; in assay [6], 69.1 nM. The GI50 was 0.0304 µM in [7], 34.5 nM in assay [8], 34.3 nM in assay [9] and 0.0268 µM in assay [10]. In addition, the TGI in assay [1] is 73.6 µM; in assay [2], > 100 µM; in [3] it was > 100 µM; in assay [4], > 100 µM; in [5], > 100 µM; in assay [6] it was > 100 µM. The TGI in assay [7] is 1.11 µM; in [8], > 100 µM; in [9] it was > 100 µM; in [10], 0.0836 µM.
